# Assay results taken from PMC8424217 (The Journal of Biological Chemistry, 2021).
# Peptide text beside a SMILES is read from it. * marks the point of attachment. Palmitoyl = CCCCCCCCCCCCCCCC(=O)*
# Key:
# HEK 293-hUT cells = experiment: Cell proliferation, MTT assay and flow cytometry, HEK 293-hUT cells; type: cell-based; details: 10^−6 M, three independent experiments in triplicate
# Method: Each bar corresponds to the mean ± SEM obtained from three independent experiments conducted in triplicate.
# HEK 293-hUT cell proliferation was evaluated by flow cytometry using propidium iodide DNA staining. […] Next, cells were detached, fixed with cold 70% ethanol, and then stored at –20 °C for at least 2 h. Cells were centrifuged at 200 rpm for 10 min at 4 °C and washed at least once with cold PBS. Cells were then resuspended in Triton X-100 (0.1%) supplemented with propidium iodide (500 μg mL^−1), and 200 μg mL^−1 of DNAse-free RNAse A in PBS. Data, expressed as the mean ± SEM of at least three independent experiments, were acquired on a FACScan (BD Biosciences), and results were analyzed with the FlowJo v10 software. The proliferation index is defined as the total number of divisions divided by the number of cells that went into division.
# rat thoracic aorta rings = molecular target: T1, rat thoracic aorta rings (Rattus norvegicus, UniProt P49684); experiment: Modulation of URP-mediated rat aortic ring contraction; details: pepducin 10^−6 M 30 min prior to URP, percentage of KCl (40 mM) contraction divided by tissue response to URP (10^−6 M), mean ± SEM, n = 5, read-out: URP Emax after pepducin pretreatment
# T1 sequence (P49684 1-386): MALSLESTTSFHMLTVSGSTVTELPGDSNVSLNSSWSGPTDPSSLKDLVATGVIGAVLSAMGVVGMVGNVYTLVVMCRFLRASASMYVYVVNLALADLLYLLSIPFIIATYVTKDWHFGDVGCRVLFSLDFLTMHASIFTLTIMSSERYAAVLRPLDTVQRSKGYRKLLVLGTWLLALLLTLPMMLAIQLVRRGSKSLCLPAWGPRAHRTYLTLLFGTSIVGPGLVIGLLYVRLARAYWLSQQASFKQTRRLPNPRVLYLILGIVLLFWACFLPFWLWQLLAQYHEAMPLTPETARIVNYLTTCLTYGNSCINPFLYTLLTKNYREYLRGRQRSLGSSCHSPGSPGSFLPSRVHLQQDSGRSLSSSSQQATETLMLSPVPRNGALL
# Method: Each replicate (n) was conducted on tissue obtained from at least three different animals. Data represent mean ± SEM.
# Adult male Sprague-Dawley rats (Charles-River) weighing 250–300 g were housed in cages under controlled illumination (12:12 h light–dark cycle), humidity, and temperature (21–23 °C) and had free access to tap water and rat chow. All experimental procedures were performed in accordance with regulations and ethical guidelines from the Canadian Council for the Care of Laboratory Animals and received approvals of the institutional animal care and use committee of the Institut National de la Recherche Scientifique—Centre Armand-Frappier Santé Biotechnologie. As previously described ([17], [18]), the thoracic aorta was cleared of surrounding tissue and then excised from the aortic arch to the diaphragm. Conjunctive tissues were next removed from the thoracic aorta and the vessels were divided into five rings of 4 mm. The endothelium of each aortic ring was removed by gently rubbing the vessel intimal surface. Aortic rings were then placed in a 5 ml organ bath filled with oxygenated normal Krebs–Henseleit buffer. Eighty microliters of a 2.5 M potassium chloride solution (40 mM final concentration) was used to evaluate maximal contractile responses of each vessel. […] Cumulative concentration–response curves to synthetic peptides were obtained by increasing the concentration of each peptide in the remaining organ chambers (10^−11–10^−5 M).
# hUT = molecular target: T2, hUT (Homo sapiens, UniProt Q9UKP6); experiment: ERK1/2 phosphorylation, western blot, CHO-hUT cells; type: cell-based; design: expressed in transfected cells; host or cells: CHO-K1 cells stably expressing hUT (gift from H. Vaudry and C. Dubessy, University of Rouen); details: for EC50 / effect of AG1478 (EGFR inhibitor) on ERK1/2 phosphorylation induced by the peptide / effect of PTX on ERK1/2 phosphorylation induced by the peptide / effect of U73122 (PLC inhibitor) on ERK1/2 phosphorylation induced by the peptide / time of second peak of ERK1/2 phosphorylation / time of maximal ERK1/2 phosphorylation: CHO-hUT; for EC50: 5 min stimulation, mean ± SEM of at least three independent experiments in triplicate, read-out: ERK1/2 phosphorylation pEC50 (converted); for effect of AG1478 (EGFR inhibitor) on ERK1/2 phosphorylation induced by the peptide: AG1478 5 μM 30 min pretreatment; for effect of AG1478 (EGFR inhibitor) on ERK1/2 phosphorylation induced by the peptide / effect of PTX on ERK1/2 phosphorylation induced by the peptide / effect of U73122 (PLC inhibitor) on ERK1/2 phosphorylation induced by the peptide: pepducin 10^−6 M, 5 min, n = 3; for effect of PTX on ERK1/2 phosphorylation induced by the peptide: PTX 200 ng/ml 24 h pretreatment; for effect of U73122 (PLC inhibitor) on ERK1/2 phosphorylation induced by the peptide: U73122 1 μM 60 min pretreatment; for time of second peak of ERK1/2 phosphorylation / time of maximal ERK1/2 phosphorylation: pepducins 10^−6 M; for time of maximal ERK1/2 phosphorylation: hUII 10^−7 M
# T2 sequence (Q9UKP6 1-389): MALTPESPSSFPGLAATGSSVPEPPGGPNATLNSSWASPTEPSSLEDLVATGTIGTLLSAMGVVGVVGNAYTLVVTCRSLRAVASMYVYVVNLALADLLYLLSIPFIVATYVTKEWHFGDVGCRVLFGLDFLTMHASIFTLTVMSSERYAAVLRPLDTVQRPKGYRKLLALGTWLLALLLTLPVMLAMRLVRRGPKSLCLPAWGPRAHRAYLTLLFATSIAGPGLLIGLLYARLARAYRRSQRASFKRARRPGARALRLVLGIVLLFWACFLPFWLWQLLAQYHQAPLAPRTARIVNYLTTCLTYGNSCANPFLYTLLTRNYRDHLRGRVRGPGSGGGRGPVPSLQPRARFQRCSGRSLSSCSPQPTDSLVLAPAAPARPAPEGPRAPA
# Method: Figure 3 IP1production (A and B) and ERK1/2phosphorylation (C and D) kinetics and concentration dependence following hUT activation. IP1 production was evaluated using the IP-One terbium immunoassay kits while ERK1/2 phosphorylation was measured by western blot in CHO-K1 cells stably expressing hUT. […] Each curve represents the mean ± SEM of at least three independent experiments performed in triplicate.
# ERK1/2 phosphorylation was measured by western blot. […] Quantification of ERK1/2 phosphorylation level was performed in three independent experiments done in triplicate (mean ± SEM, n = 3, ∗∗∗p < 0.001, ∗∗p < 0.01, or ∗p < 0.05, versus control).
# CHO cells stably expressing hUT (CHO-hUT; gift from Drs H. Vaudry et C. Dubessy, University of Rouen, France) were grown in 12-well plates to 70–80% confluence and starved for 6 h in a serum-free medium. […] Briefly, HEK 293-hUT cells, grown in 12-well plates to 70–80% confluence, were starved for 6 h in a serum-free medium. […] Cells were then rinsed twice with ice-cold PBS and homogenized in 0.5 ml of lysis buffer (20 mM Tris, 150 mM NaCl, 1 mM EDTA, 1 mM EGTA, 1% Triton X-100, 2.5 mM sodium pyrophosphate, 1 mM β-glycerolphosphate, 1 mM Na3VO4, 1 μg mL^−1 leupeptin, 1 mM PMSF, 1 mM DTT) at 4 °C. Insoluble material was removed by centrifugation at 12,000 rpm for 30 min. The extract was treated with Laemmli sample buffer and heated for 5 min at 95 °C. Aliquots were assayed for protein concentration (BioRad) and an equal amount of total protein was subjected to 12% SDS–PAGE, followed by transfer to a nitrocellulose membrane. The membrane was blocked and then probed with primary antibody (phospho-p44/42 MAPK) at the optimal dilution (1/2000) with gentle agitation overnight at 4 °C. After washing with TTBS, membranes were then incubated with secondary antibody, conjugated with horseradish peroxidase (anti-rabbit HRP) diluted in TBST containing 5% skim milk (w/v) for 1 h at room temperature. Immunoreactive species were visualized by enhanced chemiluminescence using X-ray film and Thermo Scientific SuperSignal chemiluminescent substrates according to the manufacturer's instructions. Films were digitized and the intensity of the immunoreactive bands determined using Quantity One software from Bio-Rad.
Compound,HEK 293-hUT cell proliferation (HEK 293-hUT cells),Emax (rat thoracic aorta rings) [%],Emax (hUT) [%],EC50 (hUT) [µM],effect of AG1478 (EGFR inhibitor) on ERK1/2 phosphorylation induced by the peptide (hUT),effect of PTX on ERK1/2 phosphorylation induced by the peptide (hUT),effect of U73122 (PLC inhibitor) on ERK1/2 phosphorylation induced by the peptide (hUT),time of second peak of ERK1/2 phosphorylation (hUT),time of maximal ERK1/2 phosphorylation (hUT) [min]
"CCCCCCCCCCCCCCCC(=O)N[C@@H](Cc1c[nH]c2ccccc12)C(=O)N[C@@H](CC(C)C)C(=O)N[C@@H](CO)C(=O)N[C@@H](CCC(N)=O)C(=O)N[C@@H](CCCNC(=N)N)C(=O)N[C@@H](C)C(=O)N[C@@H](CO)C(=O)N[C@@H](Cc1ccccc1)C(=O)N[C@@H](CCCCN)C(=O)N[C@@H](CCCNC(=N)N)C(=O)N[C@@H](C)C(=O)N[C@@H](CCCNC(=N)N)C(=O)N[C@@H](CCCNC(=N)N)C(N)=O [[Trp^1, Leu^2]hUT-Pep3] (Palmitoyl-WLSQRASFKRARR-NH2)",able to induce HEK 293-hUT cell proliferation,16 ± 2,56 ± 2,0.2,significantly reduced the ability of both hUT-derived pepducins to induce ERK1/2 phosphorylation,completely prevented,completely prevented,60 min,5
"CC(C)[C@H](NC(=O)[C@@H]1CSSC[C@H](NC(=O)[C@H](CC(=O)O)NC(=O)[C@@H]2CCCN2C(=O)[C@@H](NC(=O)[C@@H](N)CCC(=O)O)[C@@H](C)O)C(=O)N[C@@H](Cc2ccccc2)C(=O)N[C@@H](Cc2c[nH]c3ccccc23)C(=O)N[C@@H](CCCCN)C(=O)N[C@@H](Cc2ccc(O)cc2)C(=O)N1)C(=O)O [hUII, urotensin II, reference compound]",able to induce HEK 293-hUT cell proliferation,–,102 ± 2,–,–,"substantially reduced, or even suppressed",–,–,5
CCCCCCCCCCCCCCCC(=O)N[C@@H](CCCNC(=N)N)C(=O)N1CCC[C@H]1C(=O)N[C@@H](CC(C)C)C(=O)N[C@@H](CC(=O)O)C(=O)N[C@H](C(=O)N[C@H](C(=O)N[C@@H](CCC(N)=O)C(=O)N[C@@H](CCCNC(=N)N)C(=O)N1CCC[C@H]1C(=O)N[C@@H](CCCCN)C(=O)NCC(=O)N[C@@H](Cc1ccc(O)cc1)C(N)=O)C(C)C)[C@@H](C)O [hUT-Pep2] (Palmitoyl-RPLDTVQRPKGY-NH2),not hUT-Pep2 were able to induce HEK 293-hUT cell proliferation,76 ± 8,34 ± 2,0.055,significantly reduced the ability of both hUT-derived pepducins to induce ERK1/2 phosphorylation,unaffected by PTX treatment,only partially affected by the PLC inhibitor,a similar pattern was not observed for hUT-Pep2,5
